According to patent US10363239B2, “Method for inhibiting growth of cancer cells” (Pain Therapeutics, Inc., priority 2013, dated 2019):
Where two headings read alike, the source gives them in different places.

Columns and labels:
[1] = target: FLNA pentapeptide of SEQ ID NO: 1 (Bn-VAKGL) (Homo sapiens, UniProt P21333); test: FITC-NLX-based FLNA screening assay (inhibition of FITC-naloxone binding to Bn-VAKGL on streptavidin plates); conditions: 10 nM FITC-NLX
mu opiate receptor (MOR) = test: MOR agonist activity using [35S]GTPγS binding assay in striatal membranes; format: biochemical; conditions: for MOR agonist activity ([35S]GTPγS binding), FLNA-Binding Compound as Agonist 1 μM + BFNA: 1 μM compound + 1 μM β-funaltrexamine
How it was run: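 Striatal membranes (200 μg) were preincubated 5 min at 30 °C in HEPES pH 7.5 with 100 mM NaCl, 1 mM MgCl2 and 0.5 nM [35S]GTPγS, then 5 min more with 0.1–10 μM compound. Gαo was immunoprecipitated and bound radioactivity counted by scintillation.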

[2] = read-out: Percent Binding Inhibition, FLNA-binding compound 0.01 μM
[3] = read-out: Percent Binding Inhibition, FLNA-binding compound 0.1 μM
[4] = read-out: Percent Binding Inhibition, FLNA-binding compound 1 μM
[5] = Series B, 0.1 μM compound, relative to DAMGO
[6] = Series B, 0.1 μM compound, [35S]GTPγS binding to Gαo, striatal membranes
[7] = Series B, 1 μM compound + 1 μM β-FNA
[8] = Series B, 1 μM compound + β-FNA, relative to DAMGO + BFNA
[9] = Series B, 1 μM compound, relative to DAMGO
[10] = Series B, 1 μM compound, [35S]GTPγS binding to Gαo, striatal membranes
[11] = FLNA-binding compound 0.01 μM, read-out: Percent Binding Inhibition
[12] = FLNA-binding compound 0.1 μM, read-out: Percent Binding Inhibition
[13] = FLNA-binding compound 1 μM, read-out: Percent Binding Inhibition
[14] = Series C-2, 0.1 μM compound, relative to DAMGO
[15] = Series C-2, 0.1 μM compound, [35S]GTPγS binding to Gαo, striatal membranes
[16] = Series C-2, 1 μM compound + 1 μM β-FNA
[17] = Series C-2, 1 μM compound + β-FNA, relative to DAMGO + BFNA
[18] = Series C-2, 1 μM compound, relative to DAMGO
[19] = Series C-2, 1 μM compound, [35S]GTPγS binding to Gαo, striatal membranes
[20] = Series C-1, 0.1 μM compound, relative to DAMGO
[21] = Series C-1, 0.1 μM compound, [35S]GTPγS binding to Gαo, striatal membranes
[22] = Series C-1, 1 μM compound + 1 μM β-FNA
[23] = Series C-1, 1 μM compound + β-FNA, relative to DAMGO + BFNA
[24] = Series C-1, 1 μM compound, relative to DAMGO
[25] = Series C-1, 1 μM compound, [35S]GTPγS binding to Gαo, striatal membranes
[26] = 0.1 μM compound relative to DAMGO
[27] = 1 μM compound + BFNA relative to DAMGO + BFNA
[28] = 1 μM compound relative to DAMGO

Structure (SMILES) | inhibition at 0.01 µM [1, 2] [%] | inhibition at 0.1 µM [1, 3] [%] | inhibition at 1 µM [1, 4] [%] | inhibition at 0.01 µM [1, 11] [%] | inhibition at 0.1 µM [1, 12] [%] | inhibition at 1 µM [1, 13] [%] | MOR agonist activity ([35S]GTPγS binding), FLNA-Binding Compound as Agonist 0.1 μM (mu opiate receptor (MOR); 0.1 μM compound) [%] | % DAMGO (0.1 μM) (mu opiate receptor (MOR); [26]) [%] | MOR agonist activity ([35S]GTPγS binding), FLNA-Binding Compound as Agonist 1 μM (mu opiate receptor (MOR); 1 μM compound) [%] | MOR agonist activity ([35S]GTPγS binding), FLNA-Binding Compound as Agonist 1 μM + BFNA (mu opiate receptor (MOR)) [%] | % DAMGO + BFNA (mu opiate receptor (MOR); [27]) [%] | % DAMGO (1 μM) (mu opiate receptor (MOR); [28]) [%] | other results
COc1ccc(C(=O)CC2c3c(cc4c(c3OC)OCO4)CC[N+]2(C)C)c(F)c1 (stereo not drawn) [Compound B0027] | 40.2 | 46.7 | 49.8 |  |  |  |  |  |  |  |  |  | % DAMGO (0.1 μM) (mu opiate receptor (MOR); [5]): 82.3%; MOR agonist activity, percent [35S]GTPγS binding at the stated compound concentration (mu opiate receptor (MOR); [6]): 140.9%; MOR agonist activity, percent [35S]GTPγS binding at the stated compound concentration (mu opiate receptor (MOR); [7]): 21.6%; % DAMGO + BFNA (mu opiate receptor (MOR); [8]): 41.5%; % DAMGO (1 μM) (mu opiate receptor (MOR); [9]): 100.0%; MOR agonist activity, percent [35S]GTPγS binding at the stated compound concentration (mu opiate receptor (MOR); [10]): 266.9%
CCCCN1CCC2(CC1)OCCN2S(=O)(=O)c1ccc(C(C)=O)cc1 [Compound C0101M] |  |  |  | 50.5 | 56.4 | 59 |  |  |  |  |  |  | % DAMGO (0.1 μM) (mu opiate receptor (MOR); [14]): 82.5%; MOR agonist activity, percent [35S]GTPγS binding at the stated compound concentration (mu opiate receptor (MOR); [15]): 138.2%; MOR agonist activity, percent [35S]GTPγS binding at the stated compound concentration (mu opiate receptor (MOR); [16]): 174.8%; % DAMGO + BFNA (mu opiate receptor (MOR); [17]): 368.0%; % DAMGO (1 μM) (mu opiate receptor (MOR); [18]): 123.4%; MOR agonist activity, percent [35S]GTPγS binding at the stated compound concentration (mu opiate receptor (MOR); [19]): 274.3%
CC(=O)c1ccc(S(=O)(=O)N2CCC3(CC2)NC(=O)CN3S(=O)(=O)c2ccc(C(C)=O)cc2)cc1 [Compound C0064] | 37.3 | 44.4 | 49.2 |  |  |  |  |  |  |  |  |  | % DAMGO (0.1 μM) (mu opiate receptor (MOR); [20]): 124.2%; Concentration of FLNA-Binding Compound as Agonist 0.1 μM (mu opiate receptor (MOR); [21]): 213.8%; Concentration of FLNA-Binding Compound as Agonist 1 μM + BFNA (mu opiate receptor (MOR); [22]): 38.1%; % DAMGO + BFNA (mu opiate receptor (MOR); [23]): 110.4%; % DAMGO (1 μM) (mu opiate receptor (MOR); [24]): 159.1%; Concentration of FLNA-Binding Compound as Agonist 1 μM (mu opiate receptor (MOR); [25]): 349.6%
CC1CCC(C(C)C)C(OCC(O)CN2CCOCC2)C1 (stereo not drawn) [Compound A0004] |  |  |  | 40 | 43.7 | 47.6 | 97.4 | 55.2 | 144.2 | 86.0 | 130.9 | 55.6 | 
CC1CCC(C(C)C)C(OCC(O)CN2CCN(C)CC2)C1 (stereo not drawn) [Compound A0009] |  |  |  | 26.4 | 37.8 | 38.9 | 70.2 | 39.8 | 126.4 | 93.9 | 142.9 | 48.7 | 
CC1CCC(C(C)C)C(OCC(O)CN2CCN(CCc3ccccc3)CC2)C1 (stereo not drawn) [Compound A0020] |  |  |  | 37.8 | 38.8 | 45.8 | 168.6 | 100.9 | 217.4 | 67.4 | 194.2 | 88.7 | 
COc1ccc(C(=O)CC2c3c(cc4c(c3OC)OCO4)CC[N+]2(C)C)cc1OC (stereo not drawn) [Compound B0026] | 41.1 | 43.3 | 48.2 |  |  |  |  |  |  |  |  |  | % DAMGO (0.1 μM) (mu opiate receptor (MOR); [5]): 88.8%; MOR agonist activity, percent [35S]GTPγS binding at the stated compound concentration (mu opiate receptor (MOR); [6]): 152.0%; MOR agonist activity, percent [35S]GTPγS binding at the stated compound concentration (mu opiate receptor (MOR); [7]): 28.8%; % DAMGO + BFNA (mu opiate receptor (MOR); [8]): 55.3%; % DAMGO (1 μM) (mu opiate receptor (MOR); [9]): 87.4%; MOR agonist activity, percent [35S]GTPγS binding at the stated compound concentration (mu opiate receptor (MOR); [10]): 233.3%
C=CCN1CCC2(CC1)OCCN2S(=O)(=O)c1ccc(OC)cc1 [Compound C0091M] | 38.1 | 39.8 | 46.3 |  |  |  |  |  |  |  |  |  | % DAMGO (0.1 μM) (mu opiate receptor (MOR); [14]): 118.1%; MOR agonist activity, percent [35S]GTPγS binding at the stated compound concentration (mu opiate receptor (MOR); [15]): 207.9%; MOR agonist activity, percent [35S]GTPγS binding at the stated compound concentration (mu opiate receptor (MOR); [16]): 80.8%; % DAMGO + BFNA (mu opiate receptor (MOR); [17]): 367.3%; % DAMGO (1 μM) (mu opiate receptor (MOR); [18]): 108.5%; MOR agonist activity, percent [35S]GTPγS binding at the stated compound concentration (mu opiate receptor (MOR); [19]): 274.4%
CC(O)c1ccc(S(=O)(=O)N2CCC3(CC2)OCCN3S(=O)(=O)c2ccc(C(C)O)cc2)cc1 (stereo not drawn) [Compound C0051] | 27 | 30.4 | 36.4 |  |  |  |  |  |  |  |  |  | % DAMGO (0.1 μM) (mu opiate receptor (MOR); [20]): 65.1%; Concentration of FLNA-Binding Compound as Agonist 0.1 μM (mu opiate receptor (MOR); [21]): 94.4%; Concentration of FLNA-Binding Compound as Agonist 1 μM + BFNA (mu opiate receptor (MOR); [22]): 55.9%; % DAMGO + BFNA (mu opiate receptor (MOR); [23]): 127.0%; % DAMGO (1 μM) (mu opiate receptor (MOR); [24]): 73.1%; Concentration of FLNA-Binding Compound as Agonist 1 μM (mu opiate receptor (MOR); [25]): 170.4%
